Assay results from patent publication US5792793A, “Antibacterial, antifungal and antiviral agent” (priority 1993, dated 1998).

What was measured:
[1] = system: Aspergillus flavus; assay: Surface-smearing method, Aspergillus flavus; type: cell-based; details: about 10 mg complex, 4 days at 25° C.
[2] = system: Penicillium chrysogenum; assay: Surface-smearing method, Penicillium chrysogenum; type: cell-based; set-up: key: the proliferation level of the control (=100%, -); +: up to 80% of proliferation with respect to the proliferation level of the control (=100%, -); ++: up to 40% of proliferation; +++: almost complete suppression of proliferation; details: about 10 mg complex, 4 days at 25° C.
[3] = system: Cladosporium cladosporoides; assay: Surface-smearing method, Cladosporium cladosporoides; type: cell-based; set-up: key: the proliferation level of the control (=100%, -); +: up to 80% of proliferation with respect to the proliferation level of the control (=100%, -); ++: up to 40% of proliferation; +++: almost complete suppression of proliferation; details: about 10 mg complex, 4 days at 25° C.
[4] = system: Fusarium oxysporum; assay: Surface-smearing method, Fusarium oxysporum; type: cell-based; details: about 10 mg complex, 4 days at 25° C.
[5] = system: E. coli; assay: Minimal inhibitory concentration, E. coli; type: cell-based; details: SCD liquid medium, 48 hours at 35° C.
[6] = system: S. aureus; assay: Minimal inhibitory concentration, S. aureus; type: cell-based; details: SCD liquid medium, 48 hours at 35° C.
[7] = system: B. subtilis; assay: Minimal inhibitory concentration, B. subtilis; details: SCD liquid medium, 48 hours at 35° C.
Description: (§1) (b) Method for measuring antibacterial activity based on a minimal inhibitory concentration (MIC)
(§2) A bacterium was inoculated in a soybean casein digest (SCD) liquid medium (5 ml) and precultured for 24 hours at 35° C. The precultured bacterial liquid was diluted so as to obtain a 100-fold diluted liquid (0.1 ml), and was inoculated into an SCD liquid medium containing a thiol-silver complex (2 ml). After performing shaking culture for 48 hours at 35° C., presence or absence of proliferation was assessed.

[8] = system: C. albicans; assay: Minimal inhibitory concentration, C. albicans; details: GP liquid medium, 48 hours at 35° C.
Description: (§3) Yeast was inoculated in a glucose-peptone (GP) liquid medium (5 ml) and precultured for 24 hours at 35° C. The precultured bacterial liquid was diluted so as to obtain a 100-fold diluted liquid (0.1 ml), and was inoculated into a GP liquid medium containing a thiol-silver complex (2 ml). After performing shaking culture for 48 hours at 35° C., presence or absence of proliferation was assessed.

[9] = system: P. aeruginosa; assay: Minimal inhibitory concentration, P. aeruginosa; details: SCD liquid medium, 48 hours at 35° C.
Description: as §1, §2

[10] = system: S. cerevisiae; assay: Minimal inhibitory concentration, S. cerevisiae; details: GP liquid medium, 48 hours at 35° C.
Description: as §3

[11] = Solubility in water; details: 20° C.
[12] = Stability against exposure to light (color difference); type: physicochemical
Description: To 10 mg of each of the thiol-silver complexes shown in Table 9 to be tested, 1 ml of ethanol was added and then sonicated so as to disperse particles. The dispersed particles were uniformly fixed onto a Kiriyama filter paper (No. 3, diameter: 21 mm) by the application of a suction force. After drying, test pieces of the filter paper were sandwiched between colorless transparent plastic films (each having a thickness of 0.1 mm) and the peripheries were sealed.
The test pieces were exposed to sunlight outdoors on a sunny day. During the test, they were placed such that their surfaces received direct rays of the sun at an incidence angle of approximately 90°.
Measurement was performed using a color difference meter CR-300 (using D65 rays) manufactured by Minolta Camera Co., Ltd. Six hours after exposure to sunlight, measurement was reiterated 4 times and the data were averaged.

[13] = system: mice; assay: Peroral toxicity, single dose; type: in vivo, mice (ICR, male); details: for Dead mice/Total mice: day 14
[14] = system: human cytomegalovirus (HCMV); assay: Anti-HCMV activity, Experiment 1; type: cell-based; details: 10 μg/ml; Experiment 1, HCMV 1×10^3 pfu/ml, HEL cells, 72 hours; control 30
[15] = system: human cytomegalovirus (HCMV); assay: Anti-HCMV activity, Experiment 2 (1); type: cell-based; details: HCMV 1×10^4 pfu/ml, medium not changed, 72 hours, control 390
[16] = system: human cytomegalovirus (HCMV); assay: Anti-HCMV activity, Experiment 2 (2); type: cell-based; details: HCMV 1×10^4 pfu/ml, washed after 1 hour adsorption, 72 hours, control 120
[17] = after exposure to sunlight, six hours

| Compound | antibacterial activity ranking, surface-smearing method [1] | antibacterial activity ranking, surface-smearing method [2] | antibacterial activity ranking, surface-smearing method [3] | antibacterial activity ranking, surface-smearing method [4] | Minimal Inhibitory Concentration [5] [µg/mL] | Minimal Inhibitory Concentration [6] [µg/mL] | Minimal Inhibitory Concentration [7] [µg/mL] | Minimal Inhibitory Concentration [8] [µg/mL] | Minimal Inhibitory Concentration [9] [µg/mL] | Minimal Inhibitory Concentration [10] [µg/mL] | other results |
| --- | --- | --- | --- | --- | --- | --- | --- | --- | --- | --- | --- |
| 2-Naphthalenethiol-silver complex [#3] | + (up to 80% of proliferation with respect to the proliferation level of the control (=100%, -)) | + (up to 80% of proliferation with respect to the proliferation level of the control (=100%, -)) | +++ | - (the proliferation level of the control (=100%, -)) | 8 | 250 | < 2 | 125 | 250 | 62.5 | – |
| 5-Mercapto-(1H)tetrazoylacetic acid-silver complex.Na [#16-b] | + (up to 80% of proliferation with respect to the proliferation level of the control (=100%, -)) | +++ | +++ | ++ (up to 40% of proliferation) | 16 | 32 | 32 | 250 | 16 | 125 | – |
| [Cl][Ag] [silver chloride] | – | – | – | – | – | – | – | – | – | – | solubility, in water [11]: less than 1 % by weight |
| Thiosalicylic acid-silver complex [#1L-8H] | - (the proliferation level of the control (=100%, -)) | ++ (up to 40% of proliferation) | +++ | ++ (up to 40% of proliferation) | < 2 | 16 | < 2 | 1000 | 16 | 125 | L* (L*a*b* color representation) [12, 17]: 65.4; a* (L*a*b* color representation) [12, 17]: 8.3; b* (L*a*b* color representation) [12, 17]: 40.1; L* (L*a*b* color representation) ([12]; before exposure to sunlight): 83.1; a* (L*a*b* color representation) ([12]; before exposure to sunlight): 13.2; b* (L*a*b* color representation) ([12]; before exposure to sunlight): 66.4; Dead mice/Total mice ([13]; 1762 mg/kg peroral single dose): 0/5; Dead mice/Total mice ([13]; 2291 mg/kg peroral single dose): 0/5; Dead mice/Total mice ([13]; 2978 mg/kg peroral single dose): 0/4; Dead mice/Total mice ([13]; 3871 mg/kg peroral single dose): 0/4; LD50 ([13]; peroral, single dose, ICR male mice, 20160 min): not less than 3.9 g/kg; number of cells positive in fluorescent staining (single field of vision) [14]: 5; number of cells positive in fluorescent staining (single field of vision) ([15]; 1 μg/ml): 280; number of cells positive in fluorescent staining (single field of vision) ([15]; 10 μg/ml): 240; number of cells positive in fluorescent staining (single field of vision) ([15]; 50 μg/ml): 100; number of cells positive in fluorescent staining (single field of vision) ([16]; 1 μg/ml): 30; number of cells positive in fluorescent staining (single field of vision) ([16]; 10 μg/ml): 30; number of cells positive in fluorescent staining (single field of vision) ([16]; 50 μg/ml): 20 |
| α-Thioglycerol-silver complex [#14-b] | - (the proliferation level of the control (=100%, -)) | + (up to 80% of proliferation with respect to the proliferation level of the control (=100%, -)) | ++ (up to 40% of proliferation) | - (the proliferation level of the control (=100%, -)) | – | 250 | 250 | > 1000 | 62.5 | 250 | – |
